This test has as its target T1, hGPR40 (Homo sapiens, UniProt O14842).
T1 construct: expressed in transfected cells
The test can be described thus: Calcium flux assay to detect GPR40 activation. The class given is cell-based. The following applies: CHO-K cells stably expressing hGPR40; Fluo-4 NW; read for 4 min at 5 s intervals. The procedure, abridged:
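CHO-K cells stably expressing hGPR40 were cultured 24 h at 37 °C and loaded with Fluo-4 NW for 30 min at 37 °C plus 30 min at RT. Compounds diluted in HEPES buffer were added, and calcium fluorescence was recorded for 4 min at 5 s intervals.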

T1 sequence (O14842 whole entry): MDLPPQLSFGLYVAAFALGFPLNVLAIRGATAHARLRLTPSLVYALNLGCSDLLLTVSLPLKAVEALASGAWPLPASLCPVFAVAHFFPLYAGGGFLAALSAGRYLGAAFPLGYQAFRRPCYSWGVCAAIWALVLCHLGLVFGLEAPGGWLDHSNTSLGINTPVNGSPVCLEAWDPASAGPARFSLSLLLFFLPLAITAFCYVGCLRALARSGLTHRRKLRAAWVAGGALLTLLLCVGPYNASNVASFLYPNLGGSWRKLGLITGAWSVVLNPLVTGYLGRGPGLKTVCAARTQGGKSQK

On to `CO/N=C(\COc1ccc(COc2ccc(C(CC(=O)O)c3c(C)noc3C)cc2)cc1)c1ccccc1` (centres unmarked) [Compound 67, 3-(3,5-Dimethyl-1,2-oxazol-4-yl)-3-{4-[(4-{[(2E,2Z)-2-(methoxyimino)-2-phenylethyl]oxy}benzyl)oxy]phenyl}propanoic acid], for which the EC50 is above 100 nM.

On to `CO/N=C(\COc1ccc(COc2ccc(C(C#N)CC(=O)O)cc2)cc1)c1ccc2c(c1)CCO2` (centres unmarked) [Compound 102, 3-Cyano-3-{4-[(4-{[(2Z)-2-(2,3-dihydro-1-benzofuran-5-yl)-2-(methoxyimino)ethyl]oxy}benzyl)oxy]phenyl}propanoic acid], for which the EC50 lay in the range of 10 to 100 nM.

As for `CO/N=C(\COc1ccc(COc2ccc(C(C#N)CC(=O)O)cc2)cc1)c1ccccc1` (single isomer, unassigned; (+)) [Compound 81, (+)-Sodium 3-cyano-3-{4-[(4-{[(2Z)-2-(methoxyimino)-2-phenylethyl]oxy}benzyl)oxy]phenyl}propanoate], the EC50 fell in the range of 10 to 100 nM.

On to `CO/N=C(/COc1ccc(COc2ccc(C(C#N)CC(=O)O)cc2)cc1)c1ccc(C#N)cc1` (racemic) [Compound 33, 3-Cyano-3-{4-[(4-{[(2E,2Z)-2-(4-cyanophenyl)-2-(methoxyimino)ethyl]oxy}benzyl)oxy]phenyl}propanoic acid], for which the EC50 is below 10 nM.

On to `CO/N=C(/COc1ccc(COc2ccc(C(CC(=O)O)c3ccon3)cc2)cc1)c1cccc(C)c1` (racemic) [Compound 24, 3-{4-[(4-{[(2E,2Z)-2-(Methoxyimino)-2-(3-methylphenyl)ethyl]oxy}benzyl)oxy]phenyl}-3-(1,2-oxazol-3-yl)propanoic acid], for which the EC50 was 10 to 100 nM.

Regarding `CON=C(COc1ccc(CNc2ccc([C@@H]3C[C@H]3C(=O)O)cc2)cc1)c1ccccc1` (mixture of isomers) [Compound 14, (1R,2R)-2-{4-[(4-{[(2E,2Z)-2-(Methoxyimino)-2-phenylethyl]oxy}benzyl)amino]phenyl}cyclopropanecarboxylic acid], the EC50 was 10 to 100 nM.

On to `CO/N=C(/COc1ccc(COc2ccc(C(C#N)CC(=O)O)cc2)cc1)c1ccccc1` (single isomer, unassigned) [Compound 99, 3-Cyano-3-{4-[(4-{[(2E)-2-(methoxyimino)-2-phenylethyl]oxy}benzyl)oxy]phenyl}propanoic acid], for which the EC50 is 10 to 100 nM.

Take `CO/N=C(/COc1ccc(COc2ccc(C(C#N)CC(=O)O)cc2)cc1)c1ccccc1` (single isomer, unassigned) [Compound 100, 3-Cyano-3-{4-[(4-{[(2E)-2-(methoxyimino)-2-phenylethyl]oxy}benzyl)oxy]phenyl}propanoic acid]: the EC50 was 10 to 100 nM.

As for `CO/N=C(\COc1ccc(COc2ccc(CCC(=O)O)c(-c3c(C)noc3C)c2)cc1)c1ccccc1` [Compound 84, 3-{2-(3,5-Dimethyl-1,2-oxazol-4-yl)-4-[(4-{[(2E,2Z)-2-(methoxyimino)-2-phenylethyl]oxy}benzyl)oxy]phenyl}propanoic acid], the EC50 was above 100 nM.

Regarding `CO/N=C(\COc1ccc(COc2ccc(C(C)(C#N)CC(=O)O)cc2)cc1)c1ccccc1` (centres unmarked) [Compound 59, 3-Cyano-3-{4-[(4-{[(2Z)-2-(methoxyimino)-2-phenylethyl]oxy}benzyl)oxy]phenyl}butanoic acid], the EC50 is above 100 nM.

For the molecule `CO/N=C(\COc1ccc(COc2ccc(CCC(=O)O)c(O)c2)cc1)c1ccccc1` [Compound 96, 3-{2-Hydroxy-4-[(4-{[(2Z)-2-(methoxyimino)-2-phenylethyl]oxy}benzyl)oxy]phenyl}propanoic acid], the concentration for a half-maximal effect (EC50) is above 100 nM.

Take `CO/N=C(\COc1ccc(COc2ccc(C(C#N)CC(=O)O)cc2)cc1)c1cccc(F)c1` (centres unmarked) [Compound 55, Sodium 3-cyano-3-{4-[(4-{[(2Z)-2-(3-fluorophenyl)-2-(methoxyimino)ethyl]oxy}benzyl)oxy]phenyl}propanoate]: the EC50 was below 10 nM.

With `CO/N=C(\COc1ccc(COc2ccc(C(C#N)CC(=O)O)c(OC)c2)cc1)c1ccccc1` (centres unmarked) [Compound 83, 3-Cyano-3-{2-methoxy-4-[(4-{[(2Z)-2-(methoxyimino)-2-phenylethyl]oxy}benzyl)oxy]phenyl}propanoic acid], the EC50 lay within 10 to 100 nM.

As to `CO/N=C(\COc1ccc(COc2ccc(C3CC3C(=O)O)cc2)cc1)c1ccc(C#N)cc1` (centres unmarked) [Compound 51, Sodium 2-{4-[(4-{[(2Z)-2-(4-cyanophenyl)-2-(methoxyimino)ethyl]oxy}benzyl)oxy]phenyl}cyclopropanecarboxylate], the EC50 is below 10 nM.

As for `CC#CC(CC(=O)O)c1ccc(OCc2ccc(OC/C(=N\OC)c3ccccc3)cc2)cc1` (centres unmarked) [Compound 85, 3-{4-[(4-{[(2Z)-2-(Methoxyimino)-2-phenylethyl]oxy}benzyl)oxy]phenyl}hex-4-ynoic acid], the 50% effective concentration (EC50) is below 10 nM.

Regarding `CO/N=C(\COc1ccc(COc2ccc(/C(C#N)=C/C(=O)O)cc2)cc1)c1ccccc1` [Compound 76, (2Z)-3-Cyano-3-{4-[(4-{[(2Z)-2-(methoxyimino)-2-phenylethyl]oxy}benzyl)oxy]phenyl}prop-2-enoic acid], the EC50 is 10 to 100 nM.

`CO/N=C(\COc1ccc(CNc2ccc([C@@H]3C[C@H]3C(=O)O)cc2)cc1)c1ccccc1C` [Compound 15, (1R,2R)-2-{4-[(4-{[(2Z)-2-(Methoxyimino)-2-(2-methylphenyl)ethyl]oxy}benzyl)amino]phenyl}cyclopropanecarboxylic acid]: the EC50 was 10 to 100 nM.

With `CO/N=C(\COc1ccc(COc2ccc(C(C#N)CC(=O)O)cc2)cc1)C1=Cc2ccccc2C1` (centres unmarked) [Compound 101, 3-Cyano-3-{4-[(4-{[(2Z)-2-(1H-inden-2-yl)-2-(methoxyimino)ethyl]oxy}benzyl)oxy]phenyl}propanoic acid], the EC50 was 10 to 100 nM.

Regarding `CO/N=C(/COc1ccc(COc2ccc(C(C#N)CC(=O)O)cc2)cc1)c1ccc(F)cc1` (racemic) [Compound 22, 3-Cyano-3-{4-[(4-{[(2E,2Z)-2-(4-fluorophenyl)-2-(methoxyimino)ethyl]oxy}benzyl)oxy]phenyl}propanoic acid], the EC50 is below 10 nM.

Regarding `CO/N=C(\COc1ccc(COc2ccc(C(O)CC(=O)O)cc2)cc1)c1ccccc1` (centres unmarked) [Compound 118, 3-Hydroxy-3-{4-[(4-{[(2Z)-2-(methoxyimino)-2-phenylethyl]oxy}benzyl)oxy]phenyl}propanoic acid], the EC50 is above 100 nM.

Turning to `CCCC(CC(=O)O)c1ccc(OCc2ccc(OC/C(=N\OC)c3ccccc3)cc2)cc1` (centres unmarked) [Compound 91, 3-{4-[(4-{[(2Z)-2-(Methoxyimino)-2-phenylethyl]oxy}benzyl)oxy]phenyl}hexanoic acid], the EC50 was above 100 nM.

As to `CO/N=C(\COc1ccc(COc2ccc(CCC(=O)O)cn2)cc1)c1ccccc1` [Compound 114, 3-{6-[(4-{[(2Z)-2-(Methoxyimino)-2-phenylethyl]oxy}benzyl)oxy]pyridin-3-yl}propanoic acid], the EC50 is above 100 nM.

For `CO/N=C(\COc1ccc(COc2ccc(C(C#N)CC(=O)O)cc2)cc1)c1ccc2c(c1)CCC2` (centres unmarked) [Compound 103, 3-Cyano-3-{4-[(4-{[(2Z)-2-(2,3-dihydro-1H-inden-5-yl)-2-(methoxyimino)ethyl]oxy}benzyl)oxy]phenyl}propanoic acid], the EC50 is 10 to 100 nM.

Consider `CC(C)O/N=C(/c1ccccc1)c1cccc(CNc2ccc(CCC(=O)O)cc2)c1` [Compound 10, 3-{4-[(3-{(E,Z)-Phenyl[(propan-2-yloxy)imino]methyl}benzyl)amino]phenyl}propanoic acid], for which the half-maximal effective concentration (EC50) is above 100 nM.

On to `CO/N=C(/c1ccccc1)c1cccc(COc2ccc(C(C#N)CC(=O)O)cc2)c1` (centres unmarked) [Compound 12, 3-Cyano-3-[4-({3-[(E,Z)-(methoxyimino)(phenyl)methyl]benzyl}oxy)phenyl]propanoic acid], for which the EC50 is above 100 nM.

In the case of `CON=C(COc1ccc(COc2ccc(CCC(=O)O)c(OCC(=O)O)c2)cc1)c1ccccc1` (mixture of isomers) [Compound 89, 3-{2-(Carboxymethoxy)-4-[(4-{[(2E,2Z)-2-(methoxyimino)-2-phenylethyl]oxy}benzyl)oxy]phenyl}propanoic acid], the EC50 is above 100 nM.

Turning to `CO/N=C(\COc1ccc(COc2ccc(C(C#N)CC(=O)O)cc2)cc1)c1ccccc1` (centres unmarked) [Compound 18, Sodium 3-cyano-3-{4-[(4-{[(2Z)-2-(methoxyimino)-2-phenylethyl]oxy}benzyl)oxy]phenyl}propanoate], the EC50 is below 10 nM.

Consider `CO/N=C(\COc1ccc(COc2ccc(C(C#N)CC(=O)O)cc2)cc1)c1ccccc1` (single isomer, unassigned; (-)) [Compound 75, (−)-3-Cyano-3-{4-[(4-{[(2Z)-2-(methoxyimino)-2-phenylethyl]oxy}benzyl)oxy]phenyl}propanoic acid], for which the EC50 was below 10 nM.

Consider `CO/N=C(\COc1ccc(COc2ccc(/C=C/C(=O)O)c(OC)c2)cc1)c1ccccc1` [Compound 95, (2E,2Z)-3-{2-Methoxy-4-[(4-{[(2Z)-2-(methoxyimino)-2-phenylethyl]oxy}benzyl)oxy]phenyl}prop-2-enoic acid], for which the EC50 was above 100 nM.

As for `CO/N=C(\COc1ccc(COc2ccc(C(CC(=O)O)c3ccccc3)cc2)cc1)c1ccccc1` (centres unmarked) [Compound 112, 3-{4-[(4-{[(2Z)-2-(Methoxyimino)-2-phenylethyl]oxy}benzyl)oxy]phenyl}-3-phenylpropanoic acid], the half-maximal effective concentration (EC50) was above 100 nM.

For the molecule `CO/N=C(\COc1ccc(COc2ccc(CCC(=O)O)c(OC(C)C)c2)cc1)c1ccccc1` [Compound 60, 3-{4-[(4-{[(2Z)-2-(Methoxyimino)-2-phenylethyl]oxy}benzyl)oxy]-2-(propan-2-yloxy)phenyl}propanoic acid], the EC50 is above 100 nM.

Take `CO/N=C(\COc1ccc(-c2ccc(CCC(=O)O)cc2)cc1)c1ccccc1` [Compound 115, 3-(4′-{[(2Z)-2-(Methoxyimino)-2-phenylethyl]oxy}biphenyl-4-yl)propanoic acid]: the EC50 was above 100 nM.
